Reference: patent US20200375864A1, “PERIODONTAL DISEASE TREATMENT” (STRAUMANN HOLDING AG, priority 2013, published 2020)
“Also recorded” adds a separate entry of the source.

Tests used:
supragingival biofilm = assay: 70/30 supragingival biofilm model, biofilm decontamination with antimicrobial solutions (Experiments 1 and 2); type: cell-based; conditions: for lasting biofilm inhibiting effect, recovery of the microorganisms after 24 h (CFU, FIG. 7) / immediate decontaminating effect compared to the saline control (CFU, FIG. 7): Experiment 1, chlorhexidine 0.2%, hydrogen peroxide 3%; for immediate decontaminating effect compared to the saline control (CFU, FIG. 7): after dip, sodium hypochlorite 3%; for biofilm microbiota after 24 h (CFU, FIG. 8) / immediate effect on the biofilm microbiota (CFU, FIG. 8): hydrogen peroxide 0.1% and 1%; for immediate effect on the biofilm microbiota (CFU, FIG. 8): immediately after application, sodium hypochlorite 0.1%, 1% and 3%, detection limit <2.0E1; for CFU 24 hours after cleaning agent treatment (summary, FIG. 3b) / CFU immediately after cleaning agent treatment (summary, FIG. 3a): supragingival model, experiments 1 and 2; for CFU immediately after cleaning agent treatment (summary, FIG. 3a): immediate
Text: Evaluation of biofilm decontamination with various antimicrobial solutions Tested in a 70/30 supragingival biofilm model For a detailed description of the biofilm model used in this experiment, see e.g. Guggenheim et al., 2004, 2001 a; and Shapiro et al., 2002 and Guggenheim et al., 2009. […]

subgingival biofilm = subgingival biofilm model on titanium discs, antimicrobial solutions alone, total CFU (Experiment 3); type: cell-based; conditions: for reduction of the microbiota on the biofilms compared with the saline controls immediately after exposure (total CFU, FIG. 13): immediately after 1 min exposure, NaCIO 0.1% and 1%
Text: (§1) Evaluation of subgingival biofilm decontamination with various antimicrobial solutions tested in a subgingival biofilm model For a detailed description of the biofilm model used in this experiment, see e.g. Guggenheim et al., 2004, 2001 a; and Shapiro et al., 2002 and Guggenheim et al., 2009. OMZ 278, Prevotella intermedia OMZ 493, Veilonella dispar OMZ 598, Fusobacterium nucleatum OMZ 607, Streptococcus oralis OMZ 661, Treponema denticola OMZ 698, Campylobacter rectus OMZ 745, Actinomyces oris OMZ 871, Streptococcus anginosus OMZ 925, Porphyromonas gingivalis OMZ 1047, Tannerella forsythia [table] The purpose of the present biofilm experiment was to assess the efficacy of various antimicrobial solutions on a subgingival microbiota associated with periodontitis and implantitis. The antimicrobial effect was evaluated immediately and 24 h after a 1 min exposure to the test solutions to biofilms grown on titanium discs.

skin = conditions: 2% solution; cited from earlier work
[1] = cited from earlier work
[2] = system: individual members of the biofilm consortium; assay: subgingival biofilm model, antimicrobial solutions alone, effect on individual species (Experiment 3); type: cell-based; conditions: NaCIO 0.1% and 1%; for P. intermedia and P. gingivalis in the following 24 h (re-growth): 24 h after treatment; for immediate effect on individual species (FIGS. 9, 10 and 11): all species, immediately after 1 min exposure
Text: as §1

SMILES | immediate decontaminating effect compared to the saline control (CFU, FIG. 7) (supragingival biofilm) | biofilm microbiota after 24 h (CFU, FIG. 8) (supragingival biofilm; Experiment 2, 24 h after dip) | immediate effect on the biofilm microbiota (CFU, FIG. 8) (supragingival biofilm; Experiment 2) | CFU 24 hours after cleaning agent treatment (summary, FIG. 3b) (supragingival biofilm) | reduction of the microbiota on the biofilms compared with the saline controls immediately after exposure (total CFU, FIG. 13) (subgingival biofilm; Experiment 3) | immediate effect on individual species (FIGS. 9, 10 and 11) [2] | CFU immediately after cleaning agent treatment (summary, FIG. 3a) (supragingival biofilm) | further results
OO [H2O2, hydrogen peroxide] | very modest | re-established to the level of the controls | low decontaminating action |  |  |  |  | lasting biofilm inhibiting effect, recovery of the microorganisms after 24 h (CFU, FIG. 7) (supragingival biofilm; 24 h after dip): no or minute lasting biofilm inhibiting action
[Na+].[O-]Cl [0.1% NaCIO, Sodium hypochlorite] |  | in part recovered |  | bacterial regrowth |  |  |  | 
[H]/N=C(\N/C(=N/[H])NCCCCCCNC(=N)NC(=N)Nc1ccc(Cl)cc1)Nc1ccc(Cl)cc1 [CHX, Chlorhexidine] | very modest |  |  |  |  |  |  | strong sustained effect on the total CFU after 24 h / biofilm re-growth (subgingival biofilm; Experiment 3, 24 h after 1 min exposure): not observed; lasting biofilm inhibiting effect, recovery of the microorganisms after 24 h (CFU, FIG. 7) (supragingival biofilm; 24 h after dip): strong lasting effect
[H]/N=C(\N/C(=N/[H])NCCCCCCNC(=N)NC(=N)Nc1ccc(Cl)cc1)Nc1ccc(Cl)cc1 [2% chlorhexidine, chlorhexidine] |  |  |  |  |  |  |  | skin irritation (skin): irritating to the skin
N=C(NCCCCCCNC(=N)NC(=N)Nc1ccc(Cl)cc1)NC(=N)Nc1ccc(Cl)cc1.O=C(O)[C@H](O)[C@@H](O)[C@H](O)[C@H](O)CO.O=C(O)[C@H](O)[C@@H](O)[C@H](O)[C@H](O)CO [CHX gluconate, Chlorhexidine gluconate] |  |  |  |  |  |  |  | solubility in water [1]: water-soluble
[H]/N=C(\N/C(=N/[H])NCCCCCCNC(=N)NC(=N)Nc1ccc(Cl)cc1)Nc1ccc(Cl)cc1 [1% CHX, Chlorhexidine] |  | eradicating totally the biofilm microbiota |  | clear CFU reduction | only a limited effect | only a limited effect | no significant immediate CFU influence | P. intermedia and P. gingivalis in the following 24 h (re-growth) [2]: eradication
OCl [NaCIO, Sodium hypochlorite] | very impressive |  |  | no sustained effect on its own | near or to the detection limit | near or to the detection limit | reduces CFU counts the most; also recorded: strong immediate CFU reduction | CFU immediately after cleaning agent treatment (summary, FIG. 3a) (subgingival biofilm; subgingival model, experiment 3, immediate): strong immediate CFU reduction; P. intermedia and P. gingivalis in the following 24 h (re-growth) [2]: eradication; immediate effect on the biofilm microbiota (CFU, FIG. 8) (supragingival biofilm; Experiment 2, listed as sodium hypochlorite): below the detection level
OCl [3.0% sodium hypochlorite, Sodium hypochlorite] |  | no detectable microorganisms | no detectable microorganisms |  |  |  |  | 
[H]/N=C(\N/C(=N/[H])NCCCCCCNC(=N)NC(=N)Nc1ccc(Cl)cc1)Nc1ccc(Cl)cc1 [0.2% CHX, Chlorhexidine] |  |  | low immediate effect | clear CFU reduction |  |  | no significant immediate CFU influence | reduction of the biofilm microbiota after 24 h (supragingival biofilm; Experiment 2, 24 h after dip): ~6 log steps
OO [3% H2O2, hydrogen peroxide] |  |  |  |  | only a limited effect | only a limited effect |  | 
